{"source": "PubChem BioAssay AID720667", "about": "(NMMLSC, 2013)", "note": "Activity calls are given as the source filed them.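 The calls were made as follows: active = over 50% inhibition of phosphorylation of either protein kinase C substrates or the ERK kinase; inactive = both inhibited below 50%.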", "data": [{"system": "TALL-104 cells, ERK phosphorylation flow cytometry", "test": "blockers of stimulated ERK phosphorylation in TALL-104 – TALL-104 cells, flow cytometry, CherryPick01, mechanism study for lytic granule exocytosis inhibitor project, late-stage follow-up (AID 720667)", "conditions": "active compounds read high; dose or concentration not given here", "values": [{"compound": "COc1ccc(N2C(=O)CC(Sc3nnc(-c4ccccc4)o3)C2=O)cc1", "note": "(configuration not stated)", "inhibition": "17.4% (inactive)"}, {"compound": "CCOC(=O)c1c(NC(=O)COc2ccccc2OCC)sc2c1CC(C)(C)NC2(C)C", "inhibition": "87.3%"}, {"compound": "Cc1ccc(Nc2nc(NCc3ccco3)c3ccccc3n2)cc1", "inhibition": "1.1% (inactive)"}, {"compound": "CCN(CC)CCCNc1ccc(-c2nnc(-c3ccc(OCC(C)C)cc3)o2)cn1", "inhibition": "-22.6% (inactive)"}, {"compound": "CC1COCC(C)N1C1=C(Cl)C(=O)c2ccccc2C1=O", "note": "(configuration not stated)", "inhibition": "-16.4% (inactive)"}, {"compound": "COc1ccc(-c2cc(NC=O)c3ncc(-c4ccccc4)n3c2)cc1OC", "inhibition": "-2.1% (inactive)"}, {"compound": "N#Cc1c(Nc2ccccc2Cl)s[nH]c1=O", "inhibition": "66.4%"}, {"compound": "O=CNc1cc(-c2ccsc2)cn2c(-c3ccccc3)cnc12", "inhibition": "-17.6% (inactive)"}, {"compound": "O=C(Cn1sc2ccccc2c1=O)NC12CC3CC(CC(C3)C1)C2", "inhibition": "35.6% (inactive)"}, {"compound": "COc1ccc(-c2cc(NC=O)c3ncc(-c4cccc(OC)c4)n3c2)cc1", "inhibition": "-18.8% (inactive)"}, {"compound": "CCCCC[C@@H](C)N1C[C@@H](COCc2ccccc2)Oc2cc(N3CC[C@@H](N(C)C)C3)ccc2S1(=O)=O", "inhibition": "51.1%"}, {"compound": "O=C(Cn1sc2ccccc2c1=O)Nc1ccc(F)cc1", "inhibition": "18.2% (inactive)"}, {"compound": "CCCCC[C@@H](C)N1C[C@H](COCc2ccccc2)Oc2cc(N3CC[C@@H](N(C)C)C3)ccc2S1(=O)=O", "inhibition": "37.2% (inactive)"}, {"compound": "O=C1CC(Sc2nnnn2-c2ccccc2)C(=O)N1c1cccc(Cl)c1", "note": "(configuration not stated)", "inhibition": "67.2%"}, {"compound": "CCCCC[C@@H](C)N1C[C@@H](COCc2ccccc2)Oc2cc(N3CC[C@H](N(C)C)C3)ccc2S1(=O)=O", "inhibition": "28% (inactive)"}, {"compound": "O=c1c2ccccc2sn1-c1ccccc1", "inhibition": "37.9% (inactive)"}, {"compound": "O=c1c2ccc(F)cc2sn1-c1ccccc1", "inhibition": "53.4%"}, {"compound": "O=C(CN1C(=O)/C(=C\\c2cccc(Br)c2)Oc2ccccc21)NCCCN1CCOCC1", "inhibition": "8% (inactive)"}, {"compound": "COC(=O)c1c(NC(=O)c2nc3ccccc3s2)sc2c1CC(C)(C)NC2(C)C", "inhibition": "11.8% (inactive)"}, {"compound": "CC1=C(C)CS(=O)N(S(=O)(=O)c2ccc(Cl)cc2)C1", "note": "(configuration not stated)", "inhibition": "83.8%"}, {"compound": "Cc1cc(N2CCN(c3nc(-c4ccc([N+](=O)[O-])cc4)cs3)CC2)c2ccccc2n1", "inhibition": "78.9%"}, {"compound": "CC(C)(c1ccccc1)c1ccc(OCC(O)CNC2CCN(Cc3ccccc3)CC2)cc1", "note": "(configuration not stated)", "inhibition": "36.4% (inactive)"}, {"compound": "Cc1ccc(S(=O)(=O)n2ccc3c(OCCOCCNCc4ccc(F)cc4)cccc32)cc1", "inhibition": "-8.2% (inactive)"}, {"compound": "COc1ccccc1CNc1nc(NCc2ccc(C(C)C)cc2)c2sccc2n1", "inhibition": "-14.8% (inactive)"}, {"compound": "CC1=NOC(=O)/C1=C/c1ccc(-c2ccc(Cl)cc2)o1", "inhibition": "40.3% (inactive)"}, {"compound": "CN(C)CCNC(=O)c1ccc(-c2cn3c(-c4ccc(Oc5ccccc5)cc4)cnc3cn2)cc1", "inhibition": "-0.1% (inactive)"}, {"compound": "COc1ccc(-n2sc3ccccc3c2=O)cc1", "inhibition": "35% (inactive)"}]}]}
